Results as given in paper PMC11089506 (Journal of Medicinal Chemistry, 2024).
Structures can show the parent of a compound that is named as a salt. Where two headings read alike, the source gives them in different places.

Experiments:
[1] = molecular target: human 5-HT2AR (Homo sapiens, UniProt P28223); experiment: Ca2+/Fluo-4 assay, agonist mode, stable 5-HT2AR-HEK293 cells; details: for 5-HT2AR Rmax (%): % of the 5-HT Rmax; for 5-HT2AR Rmax ± S.E.M.: % of the 5-HT Rmax on the same 96-well plate
Sequence of human 5-HT2AR (P28223 whole entry): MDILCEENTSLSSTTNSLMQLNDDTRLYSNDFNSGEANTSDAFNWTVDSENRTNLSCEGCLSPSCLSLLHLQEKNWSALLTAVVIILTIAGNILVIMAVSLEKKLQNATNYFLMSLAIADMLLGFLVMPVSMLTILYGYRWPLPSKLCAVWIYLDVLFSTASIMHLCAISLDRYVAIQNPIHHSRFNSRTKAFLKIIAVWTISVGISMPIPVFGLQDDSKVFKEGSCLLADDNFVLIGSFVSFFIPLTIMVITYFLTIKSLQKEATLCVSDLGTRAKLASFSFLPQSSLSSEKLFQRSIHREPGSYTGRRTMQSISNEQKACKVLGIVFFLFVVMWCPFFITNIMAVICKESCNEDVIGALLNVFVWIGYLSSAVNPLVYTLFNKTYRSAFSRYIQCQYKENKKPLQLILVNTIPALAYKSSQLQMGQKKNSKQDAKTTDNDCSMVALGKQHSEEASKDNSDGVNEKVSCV

[2] = molecular target: human 5-HT2CR (Homo sapiens, UniProt P28335); experiment: Ca2+/Fluo-4 assay, agonist mode, stable 5-HT2CR-HEK293 cells; details: for 5-HT2CR Rmax (%): % of the 5-HT Rmax; for 5-HT2CR Rmax ± S.E.M.: % of the 5-HT Rmax on the same 96-well plate
Sequence of human 5-HT2CR (P28335 33-458): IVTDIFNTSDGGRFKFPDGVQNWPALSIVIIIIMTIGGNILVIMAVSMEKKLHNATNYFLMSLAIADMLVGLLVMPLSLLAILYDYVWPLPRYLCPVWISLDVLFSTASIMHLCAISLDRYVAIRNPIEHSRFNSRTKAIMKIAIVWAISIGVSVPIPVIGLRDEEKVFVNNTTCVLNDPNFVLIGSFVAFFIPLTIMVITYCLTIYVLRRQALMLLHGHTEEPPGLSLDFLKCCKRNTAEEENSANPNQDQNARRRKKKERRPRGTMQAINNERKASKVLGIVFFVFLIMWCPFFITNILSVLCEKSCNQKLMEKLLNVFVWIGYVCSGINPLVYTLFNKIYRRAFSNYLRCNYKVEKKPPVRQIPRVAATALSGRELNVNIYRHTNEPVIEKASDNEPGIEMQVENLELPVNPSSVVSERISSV

[3] = read-out: 5-HT2AR EC50, Table 1, at least 3 independent experiments
[4] = read-out: 5-HT2CR EC50, Table 1, at least 3 independent experiments
[5] = read-out: 5-HT2CR EC50, Table S2
[6] = 5-HT2CR EC50 (nM), Table 1, at least 3 independent experiments
[7] = 5-HT2CR EC50 (nM), Table 2, at least 3 independent experiments
[8] = read-out: 5-HT2AR EC50, Table 2, at least 3 independent experiments
[9] = read-out: 5-HT2CR EC50, Table 2, at least 3 independent experiments

SMILES | 5-HT2AR pEC50 ± S.E.M. ([1]; Table S2) | EC50 [1, 3] | 5-HT2CR pEC50 ± S.E.M. ([2]; Table S2) | EC50 [2, 4] | 5-HT2AR Rmax (%) ([1]; Table 2) | 5-HT2AR Rmax ± S.E.M. ([1]; Table S2) | further results
COc1cc(C2CCCNC2)c(OC)cc1Cl (stereo not drawn) [Compound 8dis, 3-(4-Chloro-2,5-dimethoxyphenyl)piperidine] | 6.16 ± 0.11 | 690 nM | 5.75 ± 0.04 | 1800 nM |  |  | 
COc1cc(C2CCCNC2)c(OC)cc1I (stereo not drawn) [Compound 9dis, 3-(4-Iodo-2,5-dimethoxyphenyl)piperidine] | 6.58 ± 0.03 | 260 nM | 5.55 ± 0.08 | 2800 nM |  |  | 
COc1cc(C2CCCNC2)c(OC)cc1C#N (stereo not drawn) [Compound 10dis, 2,5-Dimethoxy-4-(piperidin-3-yl)benzonitrile] | 5.66 ± 0.06 | 2200 nM | ~ 5.0 | ~10000 nM |  |  | EC50 [2, 5]: ~10000 nM
COc1cc(C2CCCNC2)c(OC)cc1C.Cl (stereo not drawn) [Compound 12dis, 3-(2,5-Dimethoxy-4-methylphenyl)piperidine Hydrochloride] | 6.58 ± 0.06 | 260 nM | 5.92 ± 0.08 | 1200 nM |  |  | 
COc1cc(C2CCCNC2)c(OC)cc1C.Cl (stereo not drawn) [Compound 12eu, 3-(2,5-Dimethoxy-4-methylphenyl)piperidine Hydrochloride] | 6.98 ± 0.10 | 100 nM |  |  |  |  | EC50 [2, 6]: > 10000 nM
CCc1cc(OC)c(C2CCCNC2)cc1OC.Cl (stereo not drawn) [Compound 13dis, 3-(4-Ethyl-2,5-dimethoxyphenyl)piperidine Hydrochloride] | 6.94 ± 0.09 | 110 nM | 6.19 ± 0.12 | 640 nM |  |  | 
CCc1cc(OC)c(C2CCCNC2)cc1OC.Cl (stereo not drawn) [Compound 13eu, 3-(4-Ethyl-2,5-dimethoxyphenyl)piperidine Hydrochloride] | 7.39 ± 0.11 | 41 nM | 6.42 ± 0.12 | 380 nM |  |  | agonist activity at 5-HT2CR (in words) [2]: measurable agonist activity
CCCCc1cc(OC)c(C2CCCNC2)cc1OC.Cl (stereo not drawn) [Compound 14dis, 3-(4-Butyl-2,5-dimethoxyphenyl)piperidine Hydrochloride] | 6.46 ± 0.05 | 340 nM | 5.80 ± 0.07 | 1600 nM |  |  | 
CCCCc1cc(OC)c(C2CCCNC2)cc1OC.Cl (stereo not drawn) [Compound 14eu, 3-(4-Butyl-2,5-dimethoxyphenyl)piperidine Hydrochloride] | 6.57 ± 0.06 | 270 nM |  |  |  |  | EC50 [2, 6]: > 10000 nM
COc1cc(C2CCCNC2)c(OC)cc1SC.Cl (stereo not drawn) [Compound 15dis, 3-(2,5-Dimethoxy-4-(methylthio)phenyl)piperidine Hydrochloride] | 6.75 ± 0.06 | 180 nM | 5.63 ± 0.03 | 2300 nM |  |  | 
COc1cc(C2CCCNC2)c(OC)cc1SC.Cl (stereo not drawn) [Compound 15eu, 3-(2,5-Dimethoxy-4-(methylthio)phenyl)piperidine Hydrochloride] | 7.59 ± 0.11 | 26 nM | 6.29 ± 0.06 | 510 nM |  |  | 
CCSc1cc(OC)c(C2CCCNC2)cc1OC.Cl (stereo not drawn) [Compound 16dis, 3-(2,5-Dimethoxy-4-(ethylthio)phenyl)piperidine Hydrochloride] | 6.73 ± 0.10 | 190 nM | 6.11 ± 0.08 | 780 nM |  |  | 
CCSc1cc(OC)c(C2CCCNC2)cc1OC.Cl (stereo not drawn) [Compound 16eu, 3-(2,5-Dimethoxy-4-(ethylthio)phenyl)piperidine Hydrochloride] | 7.42 ± 0.09 | 38 nM | 6.25 ± 0.08 | 570 nM |  |  | 
COc1cc(C2CCCNC2)c(OC)cc1SC(C)C (stereo not drawn) [Compound 17dis, 3-(4-(Isopropylthio)-2,5-dimethoxyphenyl)piperidine] | 6.54 ± 0.09 | 290 nM | 5.64 ± 0.05 | 2300 nM |  |  | 
COc1cc(C2CCCNC2)c(OC)cc1SC(C)C (stereo not drawn) [Compound 17eu, 3-(4-(Isopropylthio)-2,5-dimethoxyphenyl)piperidine] | 6.81 ± 0.09 | 160 nM |  |  |  |  | EC50 [2, 6]: > 10000 nM
COc1cc(C(F)(F)F)c(OC)cc1CCN [Compound 18, 2-(2,5-Dimethoxy-4-(trifluoromethyl)phenyl)ethan-1-amine Hydrochloride, reference compound] |  |  |  |  | 67% | 67 ± 5% | EC50 ([1]; 5-HT2AR pEC50 ± S.E.M., Table S2): 0.724 nM; fold higher agonist potency at 5-HT2AR than at 5-HT2CR (selectivity) ([1]; 5-HT2AR vs 5-HT2CR): 10 fold; EC50 ([2]; 5-HT2CR pEC50 ± S.E.M., Table S2): 7.59 nM; 5-HT2CR Rmax (%) ([2]; Table 2): 71%; 5-HT2CR Rmax ± S.E.M. ([2]; Table S2): 71 ± 2%
Cl.FC(F)(F)c1ccc(C2CCCNC2)cc1 (stereo not drawn) [Compound 21, 3-(4-(Trifluoromethyl)phenyl)piperidine Hydrochloride] |  |  |  |  |  |  | agonist activity at 5-HT2AR (in words) [1]: negligible agonist activity; EC50 ([1]; 5-HT2AR EC50 (nM), Table 2, at least 3 independent experiments): > 10000 nM; agonist activity at 5-HT2CR (in words) [2]: negligible agonist activity; EC50 [2, 7]: > 10000 nM
COc1cc(C(F)(F)F)ccc1C1CCCNC1.Cl (stereo not drawn) [Compound 22dis, 3-(2-Methoxy-4-(trifluoromethyl)phenyl)piperidine Hydrochloride] | 6.18 ± 0.07 |  | 5.85 ± 0.05 |  | 80% | 80 ± 5% | EC50 [1, 8]: 660 nM; EC50 [2, 9]: 1400 nM
COc1cc(C(F)(F)F)ccc1C1CCCNC1.Cl (stereo not drawn) [Compound 22eu, 3-(2-Methoxy-4-(trifluoromethyl)phenyl)piperidine Hydrochloride] | 7.16 ± 0.05 |  |  |  | 68% | 68 ± 2% | EC50 [1, 8]: 69 nM; EC50 [2, 7]: > 10000 nM
COc1cc(C2CCCNC2)ccc1C(F)(F)F.Cl (stereo not drawn) [Compound 23dis, 3-(3-Methoxy-4-(trifluoromethyl)phenyl)piperidine Hydrochloride] | 5.61 ± 0.07 |  | 5.85 ± 0.13 |  | 65% | 65 ± 3% | EC50 [1, 8]: 2500 nM; 5-HT2CR Rmax (%) ([2]; Table 2): 35%; 5-HT2CR Rmax ± S.E.M. ([2]; Table S2): 35 ± 3%; EC50 [2, 9]: 1400 nM
COc1cc(C2CCCNC2)ccc1C(F)(F)F.Cl (stereo not drawn) [Compound 23eu, 3-(3-Methoxy-4-(trifluoromethyl)phenyl)piperidine Hydrochloride] | 5.74 ± 0.09 |  |  |  | 68% | 68 ± 7% | EC50 [1, 8]: 1800 nM; EC50 [2, 7]: > 10000 nM
CCOc1cc(C(F)(F)F)c(OC)cc1C1CCCNC1.Cl (stereo not drawn) [Compound 24dis, 3-(2-Ethoxy-5-methoxy-4-(trifluoromethyl)phenyl)piperidine Hydrochloride] | 6.39 ± 0.08 |  | 5.56 ± 0.02 |  | 77% | 77 ± 7% | EC50 [1, 8]: 410 nM; EC50 [2, 7]: > 10000 nM; EC50 [2, 5]: 2700 nM
CCOc1cc(C(F)(F)F)c(OC)cc1C1CCCNC1.Cl (stereo not drawn) [Compound 24eu, 3-(2-Ethoxy-5-methoxy-4-(trifluoromethyl)phenyl)piperidine Hydrochloride] | 7.42 ± 0.10 |  |  |  | 40% | 40 ± 3% | EC50 [1, 8]: 38 nM; EC50 ([2]; 5-HT2CR EC50, Table S2): > 10000 nM
CCOc1cc(C2CCCNC2)c(OC)cc1C(F)(F)F.Cl (stereo not drawn) [Compound 25dis, 3-(5-Ethoxy-2-methoxy-4-(trifluoromethyl)phenyl)piperidine Hydrochloride] | 6.50 ± 0.10 |  |  |  | 86% | 86 ± 6% | EC50 [1, 8]: 320 nM; EC50 [2, 7]: > 10000 nM
